Laboratory results reported in PMC13205134, “Design, synthesis, and biological properties exhibited by 1,2,3-triazole based Grp94-selective inhibitors” (European journal of medicinal chemistry, 2025).

Experiments:
[1] = target: Hsp90α (Homo sapiens, UniProt P07900); assay: Competitive binding fluorescence polarization (FP) assay, Hsp90α; conditions: FITC-GDA tracer, mean of triplicates ± SD, read-out: Apparent Kd Hsp90α
Experimental: The Fluorescence Polarization Assay (FP) was performed in 96-well flat-bottom plates (Santa Cruz Biotechnology) with a final volume of 100 μL per well. The assay buffer consisted of 20 mM HEPES, 50 mM KCl, 10.5 mM MgCl2, 20 mM Na2MoO4, 0.01 % NP-40 detergent (NP-40), and pH 7.3 with fresh 2 mM dithiothreitol (DTT) and 0.1 mg/mL bovine γ-globulin (BGG). Each well contained 10 nM of Hsp90α or Grp94 (Enzo Biochem Inc.) and 6 nM of FITC-GDA (fluorescent tracer, stock in DMSO). Compounds were tested in triplicate at final concentrations of 100 μM, 10 μM, 1 μM, 0.1 μM and 0.01 μM with each final concentration containing 1 % DMSO. Each plate included control wells containing: (i) buffer only (background polarization), (ii) protein plus tracer (maximum polarization control), and (iii) tracer only (minimum polarization control). Plates were incubated on a rocker at 4 °C for 24 h. Fluorescence polarization (mP units) was measured at 37 °C using excitation and emission wavelengths of 485 and 528 nm, respectively. Apparent Kd values were determined via calculations from the polarization data obtained at which the tracer was displaced by 50 % by the compounds of interest.
[I50] = concentration of free inhibitor at 50% inhibition, [L50] = concentration of free fluorescence labeled ligand molecule at 50% inhibition, [P0] = concentration of free protein at 0% inhibition, K = dissociation constant of the protein−ligand complex.^4

[2] = test system: Grp94; assay: Competitive binding fluorescence polarization (FP) assay, Grp94; conditions: selectivity over Hsp90α; n.s. = non-selective
Experimental: The Fluorescence Polarization Assay (FP) was performed in 96-well flat-bottom plates (Santa Cruz Biotechnology) with a final volume of 100 μL per well. […] Each well contained 10 nM of Hsp90α or Grp94 (Enzo Biochem Inc.) and 6 nM of FITC-GDA (fluorescent tracer, stock in DMSO). Compounds were tested in triplicate at final concentrations of 100 μM, 10 μM, 1 μM, 0.1 μM and 0.01 μM with each final concentration containing 1 % DMSO. Each plate included control wells containing: (i) buffer only (background polarization), (ii) protein plus tracer (maximum polarization control), and (iii) tracer only (minimum polarization control). Plates were incubated on a rocker at 4 °C for 24 h.

SMILES	Kd [1] [µM]	Fold selective for Grp94 [2]
COC(=O)c1c(O)cc(O)c(Cl)c1CCn1nncc1Cc1ccccc1Cl [Compound 39, methyl 3-chloro-2-(2-(5-(2-chlorobenzyl)-1H-1,2,3-triazol-1-yl)ethyl)-4,6-dihydroxybenzoate]	8.32 ± 2.55	2 fold
COC(=O)c1c(O)cc(O)c(Cl)c1CCn1nncc1Cc1ccc(OC)cc1 [Compound 36, methyl 3-chloro-4,6-dihydroxy-2-(2-(5-(4-methoxybenzyl)-1H-1,2,3-triazol-1-yl)ethyl)benzoate]	41.5 ± 7.6	7 fold
CCSc1ccccc1Cc1cnnn1CCc1c(Cl)c(O)cc(O)c1C(=O)OC [Compound 43, methyl 3-chloro-2-(2-(5-(2-(ethylthio)benzyl)-1H-1,2,3-triazol-1-yl)ethyl)-4,6-dihydroxybenzoate]	8.53 ± 1.05	43 fold
CCc1ccccc1Cc1cnnn1CCc1c(Cl)c(O)cc(O)c1C(=O)OC [Compound 46, methyl 3-chloro-2-(2-(5-(2-ethylbenzyl)-1H-1,2,3-triazol-1-yl)ethyl)-4,6-dihydroxybenzoate]	9.22 ± 0.48	12 fold
COC(=O)c1c(O)cc(O)c(Cl)c1CCn1nncc1Cc1cccc(Cl)c1 [Compound 38, methyl 3-chloro-2-(2-(5-(3-chlorobenzyl)-1H-1,2,3-triazol-1-yl)ethyl)-4,6-dihydroxybenzoate]	6.33 ± 1.33	3 fold
CCOc1ccccc1Cc1cnnn1CCc1c(Cl)c(O)cc(O)c1C(=O)OC [Compound 40, methyl 3-chloro-2-(2-(5-(2-ethoxybenzyl)-1H-1,2,3-triazol-1-yl)ethyl)-4,6-dihydroxybenzoate]	8.92 ± 0.16	30 fold
CCOc1cc(Cl)ccc1Cc1cnnn1CCc1c(Cl)c(O)cc(O)c1C(=O)OC [Compound 41, methyl 3-chloro-2-(2-(5-(4-chloro-2-ethoxybenzyl)-1H-1,2,3-triazol-1-yl)ethyl)-4,6-dihydroxybenzoate]	8.9 ± 0.21	12 fold
CCCCc1ccccc1Cc1cnnn1CCc1c(Cl)c(O)cc(O)c1C(=O)OC [Compound 48, methyl 2-(2-(5-(2-butylbenzyl)-1H-1,2,3-triazol-1-yl)ethyl)-3-chloro-4,6-dihydroxybenzoate]	6.72 ± 0.15	78 fold
COC(=O)c1c(O)cc(O)c(Cl)c1CCn1nncc1Cc1ccc(Cl)c(Cl)c1 [Compound 37, methyl 3-chloro-2-(2-(5-(3,4-dichlorobenzyl)-1H-1,2,3-triazol-1-yl)ethyl)-4,6-dihydroxybenzoate]	6.42 ± 0.45	5 fold
COC(=O)c1c(O)cc(O)c(Cl)c1CCn1nncc1Cc1ccc(C)cc1 [Compound 34, methyl 3-chloro-4,6-dihydroxy-2-(2-(5-(4-methylbenzyl)-1H-1,2,3-triazol-1-yl)ethyl)benzoate]	6.03 ± 0.37	9 fold
COC(=O)c1c(O)cc(O)c(Cl)c1CCn1cc(Cc2ccccc2)nn1 [Compound 16, methyl 2-(2-(4-benzyl-1H-1,2,3-triazol-1-yl)ethyl)-3-chloro-4,6-dihydroxybenzoate]	6.79 ± 0.1	n.s.

The next compounds have a lower Kd [1] than those just listed; values first:

Kd [1] [µM]	Fold selective for Grp94 [2]	SMILES
5.7 ± 0.5	9 fold	COC(=O)c1c(O)cc(O)c(Cl)c1CCn1nncc1Cc1ccc(Cl)cc1 [Compound 32, methyl 3-chloro-2-(2-(5-(4-chlorobenzyl)-1H-1,2,3-triazol-1-yl)ethyl)-4,6-dihydroxybenzoate]
5.24 ± 0.24	8 fold	COC(=O)c1c(O)cc(O)c(Cl)c1CCn1nncc1Cc1ccccc1 [Compound 14, methyl 2-(2-(5-benzyl-1H-1,2,3-triazol-1-yl)ethyl)-3-chloro-4,6-dihydroxybenzoate]
4.72 ± 0.44	2 fold	COC(=O)c1c(O)cc(O)c(Cl)c1CCn1nncc1Cc1ccc(F)cc1 [Compound 31, methyl 3-chloro-2-(2-(5-(4-fluorobenzyl)-1H-1,2,3-triazol-1-yl)ethyl)-4,6-dihydroxybenzoate]
4.39 ± 0.17	78 fold	CCCSc1ccccc1Cc1cnnn1CCc1c(Cl)c(O)cc(O)c1C(=O)OC [Compound 44, methyl 3-chloro-4,6-dihydroxy-2-(2-(5-(2-(propylthio)benzyl)-1H-1,2,3-triazol-1-yl)ethyl)benzoate]
4.32 ± 0.39	70 fold	COC(=O)c1c(O)cc(O)c(Cl)c1CCn1nncc1Cc1ccccc1CCC(F)(F)F [Compound 50, methyl 3-chloro-4,6-dihydroxy-2-(2-(5-(2-(3,3,3-trifluoropropyl)benzyl)-1H-1,2,3-triazol-1-yl)ethyl)benzoate]
3.38 ± 0.33	5 fold	COC(=O)c1c(O)cc(O)c(Cl)c1CCn1nncc1Cc1ccc(Br)cc1 [Compound 33, methyl 2-(2-(5-(4-bromobenzyl)-1H-1,2,3-triazol-1-yl)ethyl)-3-chloro-4,6-dihydroxybenzoate]
2.58 ± 0.36	30 fold	CCCOc1ccccc1Cc1cnnn1CCc1c(Cl)c(O)cc(O)c1C(=O)OC [Compound 42, methyl 3-chloro-4,6-dihydroxy-2-(2-(5-(2-propoxybenzyl)-1H-1,2,3-triazol-1-yl)ethyl)benzoate]
2.06 ± 0.87	5 fold	COC(=O)c1c(O)cc(O)c(Cl)c1CCn1nncc1Cc1ccccc1SC(C)C [Compound 45, methyl 3-chloro-4,6-dihydroxy-2-(2-(5-(2-(isopropylthio)benzyl)-1H-1,2,3-triazol-1-yl)ethyl)benzoate]
1.63 ± 0.88	3 fold	COC(=O)c1c(O)cc(O)c(Cl)c1CCn1nnnc1Cc1ccccc1 [Compound 20, methyl 2-(2-(5-benzyl-1H-tetrazol-1-yl)ethyl)-3-chloro-4,6-dihydroxybenzoate]
0.92 ± 0.05	6 fold	COC(=O)c1c(O)cc(O)c(Cl)c1CCn1nncc1Cc1ccccc1CC(C)C [Compound 49, methyl 3-chloro-4,6-dihydroxy-2-(2-(5-(2-isobutylbenzyl)-1H-1,2,3-triazol-1-yl)ethyl)benzoate]
0.81 ± 0.06	n.s.	CCc1ccc(Cc2cnnn2CCc2c(Cl)c(O)cc(O)c2C(=O)OC)cc1 [Compound 35, methyl 3-chloro-2-(2-(5-(4-ethylbenzyl)-1H-1,2,3-triazol-1-yl)ethyl)-4,6-dihydroxybenzoate]
0.62 ± 0.04	n.s.	COC(=O)c1c(O)cc(O)c(Cl)c1CCc1cnnn1Cc1ccccc1 [Compound 10, methyl 2-(2-(1-benzyl-1H-1,2,3-triazol-5-yl)ethyl)-3-chloro-4,6-dihydroxybenzoate]
